Counter-ions that a name gives are not always drawn.
Key:
NF-κB [1] = test: 293-cell pNF-κB-luc reporter assay, TNF-α induced; assay type: cell-based; conditions: HEK293 cells, NF-κB driven luciferase expression, read-out: 293/NFkB-luc EC50
Method: (§1) Inhibition of NF-κB in cells by the compound of Example 1. Two reporter cell assays were used to determine the ability of the compound of Example 1 to inhibit NE-KB driven transcription. The first assay was a 293-cell based assay with a stably integrated pNF-κB-luc reporter plasmid containing 3 NF-κB promoter elements. The second assay was a 293-cell based assay with a stably integrated pTRH1-NF-κB-dscGFP reporter containing 4 NF-κB promoter elements. Cells were treated with 0, 0.2, 1, 10, 20 and 40 μM of the compound of Example 1 for 2 hours then were induced with 20 ng/ml TNF-α for 18 hours. Following the induction, luminescence or fluorescence was quantified using a Beckman-Coulter 2300 plate reader. […] These values represent the median value generated from three independent experiments±the standard error. As a control, 0.5% DMSO treated and untreated cells were compared to verify that the Example 1 carrier had no effect on the expression of luciferase or in the readout of the assay. There was a slight decrease in the output from the assay in the DMSO treated population although it was not statistically significant. As a result of the controls, the decrease in activity in the drug treated samples was compared to the DMSO control sample.

[2] = test system: IL-6 release from RAW264.7 cells; test: IL-6 release from LPS stimulated RAW264.7 cells; assay type: cell-based, mouse
Method: Specifically, A and B show the effects of the compound of Example 1 on soluble PGE2 and Il-6 secretion from RAW264.7 cells stimulated by 1 μg/mL of LPS. The cells were treated with the indicated concentrations of the compound of Example 1 for 2 hours, and then LPS was added and incubation continued for 4 hours. […]

p52 = biological target: T1, p52 (Homo sapiens, UniProt Q00653); test: TransAM NF-κB Family DNA Binding ELISA, p52; conditions: for IC50: p52 binding IC50 (uM), cells without % sign
T1 sequence (Q00653 1-454 limits assumed): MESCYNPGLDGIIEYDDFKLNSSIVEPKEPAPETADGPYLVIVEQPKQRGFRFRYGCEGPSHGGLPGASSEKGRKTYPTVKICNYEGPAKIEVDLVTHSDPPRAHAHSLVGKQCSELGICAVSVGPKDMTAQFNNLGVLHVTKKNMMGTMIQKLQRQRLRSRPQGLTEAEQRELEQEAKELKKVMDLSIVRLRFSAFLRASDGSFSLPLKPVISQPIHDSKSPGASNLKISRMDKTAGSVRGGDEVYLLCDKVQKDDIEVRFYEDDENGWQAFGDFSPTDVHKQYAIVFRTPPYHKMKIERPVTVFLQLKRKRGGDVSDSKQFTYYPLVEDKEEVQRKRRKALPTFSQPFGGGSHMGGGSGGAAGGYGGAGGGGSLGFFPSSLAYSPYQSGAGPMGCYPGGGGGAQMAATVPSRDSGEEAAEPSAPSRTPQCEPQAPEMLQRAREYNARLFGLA
Method: (§2) Treated samples were then transferred to 30 μL Complete Binding Buffer (with DTT) in microplate wells pre-coated with the NF-κB consensus oligonucleotide. […] The plate was incubated for 1 hour at room temperature with gentle shaking and then washed 3 times with 200 μL 1× Wash Buffer. NF-κB p65, p50, p52, RelB, or c-Rel subunits bound to the plate were detected with 100 μL of the primary antibody (diluted 1:1000 in 1× Antibody Buffer) specific for that subunit. The plate was incubated for 1 hour at room temperature and then washed 3 times with 200 μL 1× Wash Buffer. Next, 100 μL of a HRP conjugated goat anti-rabbit antibody (diluted 1:1,000 in 1× Antibody Buffer) was added to each well. The plate was incubated for 1 hour at room temperature and then washed 4 times with 200 μL 1× Wash Buffer. 100 μL of room temperature Developing Solution was added to each well. The reaction was allowed to develop for 2-10 minutes until a medium dark blue color developed (depending on the subunit activity in the lot of extract or lot of recombinant protein used) and then the reaction was stopped with 100 μL Stop Solution yielding a yellow color. Absorbance was recorded using a Becton-Dickinson DTX 880 Multimode Detector at 450 nm with a reference wavelength subtracted at 620 nm.

RelB = biological target: T2, RelB (Homo sapiens, UniProt Q01201); test: TransAM NF-κB Family DNA Binding ELISA, RelB; conditions: at 5 uM
T2 sequence (Q01201 1-579): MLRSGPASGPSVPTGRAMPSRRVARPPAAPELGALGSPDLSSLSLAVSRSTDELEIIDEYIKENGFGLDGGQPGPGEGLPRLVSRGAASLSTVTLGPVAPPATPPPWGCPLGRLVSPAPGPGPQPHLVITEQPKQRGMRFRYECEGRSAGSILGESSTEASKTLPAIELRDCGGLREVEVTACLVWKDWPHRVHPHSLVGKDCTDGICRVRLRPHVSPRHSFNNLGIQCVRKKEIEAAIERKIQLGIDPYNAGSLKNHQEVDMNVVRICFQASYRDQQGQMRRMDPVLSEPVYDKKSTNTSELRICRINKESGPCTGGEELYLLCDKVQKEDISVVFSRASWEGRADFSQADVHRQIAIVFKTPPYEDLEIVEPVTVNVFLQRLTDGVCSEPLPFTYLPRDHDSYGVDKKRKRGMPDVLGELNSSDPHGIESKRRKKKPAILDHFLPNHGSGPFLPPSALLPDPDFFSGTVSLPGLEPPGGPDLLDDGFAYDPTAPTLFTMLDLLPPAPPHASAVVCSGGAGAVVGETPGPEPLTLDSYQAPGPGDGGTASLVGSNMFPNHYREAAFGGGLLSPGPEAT
T2 sequence (Q00653 1-454 partner limits assumed): T1 sequence (Q00653 1-454 limits assumed)

c-Rel = biological target: T3, c-Rel (Homo sapiens, UniProt Q04864); test: TransAM NF-κB Family DNA Binding ELISA, c-Rel; conditions: at 5 uM
T3 sequence (Q04864 2-619 limits assumed): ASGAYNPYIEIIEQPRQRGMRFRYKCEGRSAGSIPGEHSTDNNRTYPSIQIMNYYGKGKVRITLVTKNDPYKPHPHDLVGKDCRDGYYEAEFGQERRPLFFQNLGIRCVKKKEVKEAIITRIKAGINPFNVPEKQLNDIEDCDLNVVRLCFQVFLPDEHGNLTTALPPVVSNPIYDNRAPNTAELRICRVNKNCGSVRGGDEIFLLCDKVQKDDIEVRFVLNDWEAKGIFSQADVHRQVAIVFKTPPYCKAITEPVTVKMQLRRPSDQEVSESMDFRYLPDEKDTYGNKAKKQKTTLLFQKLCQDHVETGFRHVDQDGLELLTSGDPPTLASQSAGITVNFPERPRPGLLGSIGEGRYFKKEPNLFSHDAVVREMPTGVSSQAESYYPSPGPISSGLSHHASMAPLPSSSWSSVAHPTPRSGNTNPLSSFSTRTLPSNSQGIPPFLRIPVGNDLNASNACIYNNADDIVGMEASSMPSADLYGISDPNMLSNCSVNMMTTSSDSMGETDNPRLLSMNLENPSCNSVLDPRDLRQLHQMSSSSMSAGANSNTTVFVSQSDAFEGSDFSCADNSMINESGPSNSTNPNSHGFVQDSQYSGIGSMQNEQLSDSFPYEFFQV
Method: as §2

p65 (RelA) = p65 (RelA) (Homo sapiens, UniProt Q04206); test: TransAM NF-κB Family DNA Binding ELISA, p65; conditions: p65 binding IC50 (uM), binding to NF-κB sites
NF-κB [3] = test: 293-cell pTRH1-NF-κB-dscGFP reporter assay, TNF-α induced; assay type: cell-based; conditions: NF-κB driven GFP expression, read-out: NF-kB/293/GFP EC50
Method: as §1

p50 = biological target: T4, p50 (Homo sapiens, UniProt P19838); test: TransAM NF-κB Family DNA Binding ELISA, p50; conditions: p50 binding IC50 (uM), cells without % sign
T4 sequence (P19838 1-433 limits assumed): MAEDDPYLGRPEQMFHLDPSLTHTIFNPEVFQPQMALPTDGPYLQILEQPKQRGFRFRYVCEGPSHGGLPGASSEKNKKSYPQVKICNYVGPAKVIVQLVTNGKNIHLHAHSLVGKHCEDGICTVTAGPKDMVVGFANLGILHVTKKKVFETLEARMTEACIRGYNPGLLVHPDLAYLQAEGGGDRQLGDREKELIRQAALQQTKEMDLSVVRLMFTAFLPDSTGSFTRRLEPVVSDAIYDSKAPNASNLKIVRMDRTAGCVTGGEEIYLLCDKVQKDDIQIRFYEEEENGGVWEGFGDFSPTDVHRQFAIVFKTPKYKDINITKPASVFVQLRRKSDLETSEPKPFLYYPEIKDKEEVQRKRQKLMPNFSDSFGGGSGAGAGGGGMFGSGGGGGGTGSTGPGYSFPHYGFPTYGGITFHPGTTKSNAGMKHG

[4] = RAW 264.7 cells, trifluoroacetate
[5] = Homo sapiens, HEK293, HEK293 cells
[6] = Mus musculus, RAW264.7, RAW 264.7 cells

Chain of p65 (RelA) (Q04206 whole entry): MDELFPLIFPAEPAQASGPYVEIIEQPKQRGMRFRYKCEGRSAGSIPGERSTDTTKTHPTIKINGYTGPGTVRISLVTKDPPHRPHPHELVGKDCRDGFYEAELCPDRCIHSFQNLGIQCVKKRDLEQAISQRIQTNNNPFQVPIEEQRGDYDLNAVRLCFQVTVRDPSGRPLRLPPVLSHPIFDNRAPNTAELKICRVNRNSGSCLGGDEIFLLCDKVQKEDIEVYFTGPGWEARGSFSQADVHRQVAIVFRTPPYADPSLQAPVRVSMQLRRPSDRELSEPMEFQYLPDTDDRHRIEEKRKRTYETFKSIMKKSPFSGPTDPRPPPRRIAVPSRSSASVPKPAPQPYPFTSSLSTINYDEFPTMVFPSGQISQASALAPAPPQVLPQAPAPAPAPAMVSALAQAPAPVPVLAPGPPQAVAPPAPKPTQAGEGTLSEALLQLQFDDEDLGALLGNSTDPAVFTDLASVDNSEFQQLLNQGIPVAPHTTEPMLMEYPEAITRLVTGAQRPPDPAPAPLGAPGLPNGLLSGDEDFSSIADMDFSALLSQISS

Compound | EC50 (NF-κB [1]; mesylate) [µM] | EC50 ([2]; RAW 264.7 cells, mesylate) [µM] | p52 binding % inhibit. at 5 uM (p52) [%] | RelB binding % inhibit. at 5 uM (RelB) [%] | c-Rel binding % inhibit. at 5 uM (c-Rel) [%] | EC50 (NF-κB [1]; trifluoroacetate) [µM] | EC50 [2, 4] [µM] | IC50 (p65 (RelA)) [µM] | EC50 (NF-κB [1]) [µM] | EC50 (NF-κB [3]; [5]) [µM] | EC50 [2, 6] [µM] | IC50 (p50) [µM] | IC50 (p52) [µM] | EC50 (NF-κB [3]; HEK293 cells, trifluoroacetate) [µM]
CS(=O)(=O)O.O=C(NC1=CC(=O)C2OC2C1O)c1ncccc1O (racemic) [Example 12, (±)-3-hydroxy-N-(2-hydroxy-5-oxo-7-oxabicyclo[4.1.0]hept-3-en-3-yl)picolinamide, mesylate] | 22 | 2.5 | 14 | 6 | 7 |  |  |  |  |  |  |  |  | 
O=C(NC1=CC(=O)C2OC2C1O)c1ncccc1O.O=C(O)C(F)(F)F (racemic) [Example 13, (±)-3-hydroxy-N-(2-hydroxy-5-oxo-7-oxabicyclo[4.1.0]hept-3-en-3-yl)picolinamide trifluoroacetate] |  |  | 0 | 10 | 15 | 9.2 | 1.4 |  |  |  |  |  |  | 
COc1cccnc1C(=O)NC1=CC(=O)C2OC2C1O (racemic) [Example 22, (±)-3-methoxy-pyridine-2-carboxylic acid (2-hydroxy-5-oxo-7-oxa-bicyclo[4.1.0]hept-3-en-3-yl)-amide trifluoroacetate] |  |  |  |  |  | > 34 | > 34 | 13.2 |  |  |  |  |  | 
O=C(NC1=CC(=O)C2OC2C1O)c1ccc(C(F)(F)F)nc1O (racemic) [Example 23, (±)-2-hydroxy-N-(2-hydroxy-5-oxo-7-oxa-bicyclo[4.1.0]hept-3-en-3-yl)-6-trifluoromethyl-nicotinamide] |  |  |  |  |  |  |  | 6.4 | > 40 | > 40 | 24.8 |  |  | 
Cc1ncc(C(=O)NC2=CC(=O)C3OC3C2O)c(O)n1 (racemic) [Example 24, (±)-4-hydroxy-2-methyl-pyrimidine-5-carboxylic acid (2-hydroxy-5-oxo-7-oxa-bicyclo[4.1.0]hept-3-en-3-yl)-amide] |  |  |  |  |  |  |  | 2.3 | > 48 | > 48 | 27.1 |  |  | 
O=C(NC1=CC(=O)C2OC2C1O)c1nc(Cl)c2ccccc2c1O (racemic) [Example 27, (±)-1-chloro-4-hydroxy-isoquinoline-3-carboxylic acid (2-hydroxy-5-oxo-7-oxa-bicyclo[4.1.0]hept-3-en-3-yl)-amide] |  |  |  |  |  |  |  | 30 | 9.7 | 6.7 | 0.71 |  |  | 
COc1ncccc1C(=O)NC1=CC(=O)C2OC2C1=O (racemic) [Example 30, (±)-N-(2,5-Dioxo-7-oxa-bicyclo[4.1.0]hept-3-en-3-yl)-2-methoxy-nicotinamide] |  |  |  |  |  |  |  | 36 | 2.7 | 4.3 | 0.76 | > 608 | > 608 | 
COc1cc2ccccc2nc1C(=O)NC1=CC(=O)C2OC2C1O (racemic) [Example 31, (±)-N-(2-hydroxy-5-oxo-7-oxabicyclo[4.1.0]hept-3-en-3-yl)-3-methoxyquinoline-2-carboxamide] |  |  |  |  |  |  |  | 38 | 3.9 | 5.6 | 1 | 28 | 21 | 
COc1c(C(=O)NC2=CC(=O)C3OC3C2=O)ccc2cccnc12 (racemic) [Example 32, (±)-N-(2,5-diose-7-oxabicyclo[4.1.0]hept-3-en-3-yl)-8-methoxyquinoline-7-carboxamide] |  |  |  |  |  |  |  | 30 | 3.4 | 3 | 0.24 | > 514 | > 514 | 
COc1c(C(=O)NC2=CC(=O)C3OC3C2O)ccc2cccnc12 (racemic) [Example 33, (±)-N-(2-hydroxy-5-oxo-7-oxabicyclo[4.1.0]hept-3-en-3-yl)-8-methoxyquinoline-7-carboxamide trifluoroacetate] |  |  |  |  |  | 0.53 | 0.26 | 4.8 |  |  |  | > 378 | > 378 | 2
O=C(NC1=CC(=O)C2OC2C1=O)c1ccncc1O (racemic) [Example 34, (±)-N-(2,5-dioxo-7-oxabicyclo[4.1.0]hept-3-en-3-yl)-3-hydroxyisonicotinamide] |  |  |  |  |  |  |  | 12 | > 51 | 39 | 42 | 90 | 96 | 
COc1nc2ccccc2cc1C(=O)NC1=CC(=O)C2OC2C1=O (racemic) [Example 35, (±)-N-(2,5-dioxo-7-oxabicyclo[4.1.0]hept-3-en-3-yl)-2-methoxyquinoline-3-carboxamide] |  |  |  |  |  |  |  | 50 | 3.1 | 5.3 | 0.44 | 148 | 81 | 

From patent US8629164B2, “Inhibitors of NF-κB” (Profectus Biosciences, Inc., priority 2009, dated 2014)
